Measurements taken from US20220168295A1, “RIMEGEPANT FOR CGRP RELATED DISORDERS” (Biohaven Pharmaceutical Ireland DAC, priority 2018, published 2022).

Tests used:
[1] = test system: subjects with Acute Migraines; assay: Study 303 (BHV3000-303) Phase 3 placebo-controlled trial, rimegepant 75 mg ODT, acute treatment of migraine: efficacy and safety; type: in vivo, human
Method: Clinical Trial—BHV3000-303: Phase 3: Double-Blind, Randomized, Placebo-Controlled, Safety and Efficacy Trial of BHV-3000 (Rimegepant) Orally Discintegrating Tablet (ODT) for the Acute Treatment of Migraine (ClinicalTrials.gov Identifier: NCT03461757) A phase 3 clinical study was conducted with 1812 participants, as follows. […] Pain freedom of rimegepant compared with placebo in the acute treatment of migraine will be measured using the number of evaluable subjects that report no pain at 2 hours post-dose. […] Pain will be measured on a 4 point Likert scale (0=none, 1=mild, 2=moderate, 3=severe) 2. Freedom from the most bothersome symptom (MBS) of rimegepant compared with placebo will be measured using the number of evaluable subjects that report the absence of their MBS at 2 hours post-dose. […] The MBS (nausea, phonophobia or photophobia) will measured using a binary scale (0=absent, 1=present). […] Pain Relief as measured by a 4 point numeric rating scale (None, Mild, Moderate, Severe) 2. […] Sustained Pain Relief as measured by a 4 point numeric rating scale (None, Mild, Moderate, Severe) 4. […] To measure rimegepant compared to placebo on the probability of requiring rescue medication will be assessed using the number of subjects that take rescue medication within […] administration of study medication (BHV3000 or placebo). […]

[2] = Pooled adverse event and LFT safety data, Studies 301, 302 and 303; type: in vivo, human; set-up: ALT or AST >10x ULN / ALT or AST >20x ULN: unit not given here; details: pooled Studies 301, 302 and 303, n = 1,771

## N[C@@H]1c2cccnc2[C@H](OC(=O)N2CCC(n3c(=O)[nH]c4ncccc43)CC2)CC[C@H]1c1cccc(F)c1F [Rimegepant, [(5S,6S,9R)-5-amino-6-(2,3-difluorophenyl)-6,7,8,9-tetrahydro-5H-cyclohepta[b]pyridin-9-yl] 4-(2-oxo-3H-imidazo[4,5-b]pyridin-1-yl)piperidine-1-carboxylate]
[1]
  Patients with LFTs >3xULN: one
[2]
  ALT or AST >3x ULN, n (%): 2 (0.1%) n (%)
  ALT or AST >10x ULN: 0
  ALT or AST >20x ULN: 0
  ALT or AST >ULN, n (%): 48 (2.7%) n (%)
[2]; AST elevation, not drug-related per investigator
  ALT or AST >5x ULN, n (%): 1 (0.06%) ^2 n (%)
